Results: patent US20240228482A1, “COMPOUNDS, COMPOSITIONS AND METHODS OF TREATING CANCER” (HOTSPOT THERAPEUTICS, INC., priority 2021, published 2024)

Target: T1, CBL-B (Homo sapiens, UniProt Q13191)
T1 construct: GST
Assay: CBL-B TR-FRET IC50 screening (E1/E2 ubiquitination, Biotin-Ubiquitin, Anti GST-Tb donor / Streptavidin-d2 acceptor)
Type: biochemical
Settings: CBL-B 10 nM final; 11-point titration from 100 uM; binned A-F; read-out: CBL-B TR-FRET activity IC50

T1 sequence (Q13191 whole entry): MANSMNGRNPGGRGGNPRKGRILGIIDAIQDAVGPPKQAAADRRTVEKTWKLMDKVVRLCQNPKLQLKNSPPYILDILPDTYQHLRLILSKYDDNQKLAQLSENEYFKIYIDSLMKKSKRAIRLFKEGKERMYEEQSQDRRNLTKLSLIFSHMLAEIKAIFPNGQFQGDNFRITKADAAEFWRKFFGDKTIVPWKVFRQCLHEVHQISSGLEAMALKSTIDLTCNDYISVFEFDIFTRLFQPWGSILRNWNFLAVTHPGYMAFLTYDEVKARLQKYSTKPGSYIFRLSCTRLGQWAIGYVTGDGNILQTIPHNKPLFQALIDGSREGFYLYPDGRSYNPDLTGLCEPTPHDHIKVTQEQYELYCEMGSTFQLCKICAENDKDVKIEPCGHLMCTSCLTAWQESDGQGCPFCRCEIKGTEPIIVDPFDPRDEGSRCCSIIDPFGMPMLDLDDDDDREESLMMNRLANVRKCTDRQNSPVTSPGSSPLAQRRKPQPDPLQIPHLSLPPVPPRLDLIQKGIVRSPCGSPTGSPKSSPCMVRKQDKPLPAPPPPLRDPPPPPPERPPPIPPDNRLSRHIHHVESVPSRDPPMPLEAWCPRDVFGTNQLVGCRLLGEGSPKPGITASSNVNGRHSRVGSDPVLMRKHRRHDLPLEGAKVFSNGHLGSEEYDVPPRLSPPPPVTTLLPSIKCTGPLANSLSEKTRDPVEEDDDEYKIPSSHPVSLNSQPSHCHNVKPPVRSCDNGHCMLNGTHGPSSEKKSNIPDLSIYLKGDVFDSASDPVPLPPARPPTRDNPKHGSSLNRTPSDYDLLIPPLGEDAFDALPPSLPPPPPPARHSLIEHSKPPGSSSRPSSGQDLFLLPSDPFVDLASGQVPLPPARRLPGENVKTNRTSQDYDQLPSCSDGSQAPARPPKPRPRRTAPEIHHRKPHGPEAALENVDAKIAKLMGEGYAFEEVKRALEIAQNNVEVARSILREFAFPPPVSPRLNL

Row | SMILES | IC50 [nM]
1 | CC(c1cc(C(F)(F)F)c2cn(-c3cccc([C@@H](c4nncn4C)C4CCC4)c3)c(=O)n2c1)N1CCC[C@H](C)C1 (single isomer, unassigned) [Compound 192] | < 100
2 | Cn1cnnc1CC1(c2cccc(-n3cc4c(C(F)(F)F)cc(CCC(=O)O)cn4c3=O)c2)COC1 [Compound 92] | 301 to 1000
3 | Cn1cnnc1[C@@H](c1cccc(-n2cc3c(C(F)(F)F)cc(CN4CCO[C@H](C(F)(F)F)C4)cn3c2=O)c1)C1CCC1 [Compound 321] | < 100
4 | CN(Cc1nncn1C)c1cccc(-n2cc3c(C(F)(F)F)cc(Br)cn3c2=O)c1 [Compound 132] | > 10000
5 | Cc1scnc1[C@@H](c1cccc(-n2cc3c(C(F)(F)F)cc(CN4CCC[C@H](C)C4)cn3c2=O)c1)C1CCC1 (single isomer, unassigned) [Compound 283] | > 10000
6 | Cn1cnnc1[C@@H](c1cccc(-n2cc3c(C(F)(F)F)cc(CN4CC[C@H](F)C4)cn3c2=O)c1)C1CCC1 (single isomer, unassigned) [Compound 159] | < 100
7 | Cn1cnnc1[C@]1(c2cccc(-n3cc4c(C(F)(F)F)cc(CN5CC[C@H](F)C5)cn4c3=O)c2)C[C@H](C)C1 (single isomer, unassigned) [Compound 226] | < 100
8 | Cn1cnnc1COc1cccc(-n2cc3c(C(F)(F)F)cc(Br)cn3c2=O)c1 [Compound 181] | > 10000
9 | C[C@H]1CCCN(Cc2cc(C(F)(F)F)c3cn(-c4cccc([C@@H](c5nncs5)C5CCC5)c4)c(=O)n3c2)C1 (single isomer, unassigned) [Compound 203] | 301 to 1000
10 | Cn1cnnc1C1(c2cccc(-n3cc4c(C(F)(F)F)cc(CN5CCc6ncsc6C5)cn4c3=O)c2)CC2(CC2)C1 [Compound 307] | < 100
11 | CN1CC2CCC(C1)N2c1cc(C(F)(F)F)c2cn(-c3cccc([C@H](c4nncn4C)C4CCC4)c3)c(=O)n2c1 [Compound 373] | 100 to 300
12 | Cn1cnnc1[C@@H](c1cccc(-n2cc3c(C(F)(F)F)cc(CN4CCc5ncsc5C4)cn3c2=O)c1)C1CCC1 [Compound 265] | < 100
13 | Cc1sc(C#N)nc1[C@@H](c1cccc(-n2cc3c(C(F)(F)F)cc(CN4CCC[C@H](C)C4)cn3c2=O)c1)C1CCC1 (single isomer, unassigned) [Compound 369] | > 10000
14 | CO[C@@H]1CCCN(Cc2cc(C(F)(F)F)c3cn(-c4cccc([C@H](c5nncn5C)C5CCC5)c4)c(=O)n3c2)C1 [Compound 251] | < 100
15 | Cc1cc(-n2cc3c(C(F)(F)F)cc(Br)cn3c2=O)cc(C2(Cc3nncn3C)COC2)c1 [Compound 238] | 1000 to 3000
16 | Cn1cnnc1CC1(c2cccc(-n3cc4c(Cl)cc(CN5CC[C@H](F)C5)cn4c3=O)c2)COC1 [Compound 66] | < 100
17 | Cc1c[nH]nc1C1(c2cccc(-n3cc4c(C(F)(F)F)cc(CN5CCO[C@H](C)C5)cn4c3=O)c2)CC2(CC2)C1 [Compound 241] | 301 to 1000
18 | Cn1cnnc1[C@@H](c1cccc(-n2cc3c(C(F)(F)F)cc(CN4CC[C@H](C#N)C4)cn3c2=O)c1)C1CCC1 (single isomer, unassigned) [Compound 174] | < 100

Row | SMILES | IC50 [nM]
19 | Cn1cnnc1CC1(c2cccc(-n3cc4c(C(F)(F)F)cc(CN5CC(O)C5)cn4c3=O)c2)COC1 [Compound 61] | 100 to 300
20 | C[C@@H]1CN(Cc2cc(C(F)(F)F)c3cn(-c4cccc([C@H](c5nncn5C)C5CCC5)c4)c(=O)n3c2)CCS1 [Compound 290] | < 100
21 | CN1CCCC(c2cc(C(F)(F)F)c3cn(-c4cccc(C5(Cc6nncn6C)COC5)c4)c(=O)n3c2)C1 (stereo not drawn) [Compound 84] | > 10000
22 | Cc1c[nH]nc1[C@H](c1cccc(-n2cc3c(C(F)(F)F)cc(CN4CCO[C@H](C)C4)cn3c2=O)c1)C1CCC1 [Compound 220] | 3000 to 10000
23 | Cn1cnnc1C1(c2cccc(-n3cc4c(C(F)(F)F)cc(Br)cn4c3=O)c2)COC1 [Compound 230] | > 10000
24 | Cn1cnnc1C(F)(F)[C@](C)(F)c1cccc(-n2cc3c(C(F)(F)F)cc(CN4CCC(F)(F)C4)cn3c2=O)c1 [Compound 35] | 3000 to 10000
25 | [2H]C([2H])([2H])n1cnnc1[C@@H](c1cccc(-n2cc3c(C(F)(F)F)cc(CN4CCO[C@H](C)C4)cn3c2=O)c1)C1CCC1 (single isomer, unassigned) [Compound 137] | < 100
26 | C[C@H]1CCCN(Cc2cc(C(F)(F)F)c3cn(-c4cccc([C@H](c5nncn5C)N5CCC5)c4)c(=O)n3c2)C1 (single isomer, unassigned) [Compound 367] | 3000 to 10000
27 | COCCn1cc(C)c([C@H](c2cccc(-n3cc4c(C(F)(F)F)cc(CN5CCC[C@H](C)C5)cn4c3=O)c2)C2CCC2)n1 (single isomer, unassigned) [Compound 336] | > 10000
28 | CO[C@H]1CCN(Cc2cc(C(F)(F)F)c3cn(-c4cccc([C@H](c5nncn5C)C5CCC5)c4)c(=O)n3c2)C1 [Compound 259] | < 100
29 | Cn1cnnc1CC1(c2cccc(-n3cc4c(C(F)(F)F)cc(CN5CCC(C)(F)CC5)cn4c3=O)c2)COC1 [Compound 11] | < 100
30 | CC(C)C[C@H](c1cccc(-n2cc3c(C(F)(F)F)cc(CN4CCC[C@H](C)C4)cn3c2=O)c1)c1nncn1C (single isomer, unassigned) [Compound 151] | 301 to 1000
31 | Cc1c[nH]nc1[C@@H](c1cccc(-n2cc3c(C(F)(F)F)cc(CN4CCO[C@H](C)C4)cn3c2=O)c1)C1COC1 [Compound 268] | > 10000
32 | COC(=O)N1CCN(Cc2cc(C(F)(F)F)c3cn(-c4cccc([C@@H](c5nncn5C)C5CCC5)c4)c(=O)n3c2)CC1 [Compound 351_P1] | 1000 to 3000
33 | C[C@H]1CCCN(Cc2cc(C(F)(F)F)c3cn(-c4cccc(N(c5nncn5C)C5CCC5)c4)c(=O)n3c2)C1 [Compound 260] | < 100
34 | Cn1cnnc1[C@]1(c2cccc(-n3cc4c(C(F)(F)F)cc(CN5CCC(F)CC5)cn4c3=O)c2)C[C@@H](C)C1 [Compound 229] | < 100
35 | C[C@H]1CCCN(Cc2cc(C(F)(F)F)c3cn(-c4cccc([C@@H](c5nnc[nH]5)C5CCC5)c4)c(=O)n3c2)C1 [Compound 269] | < 100

The next lines start with the values.

Row | IC50 [nM] | SMILES
36 | < 100 | CN(C)C(=O)C1CCN(Cc2cc(C(F)(F)F)c3cn(-c4cccc([C@H](c5nncn5C)C5CCC5)c4)c(=O)n3c2)CC1 [Compound 377]
37 | < 100 | CC1CCN(Cc2cc(C(F)(F)F)c3cn(-c4cccc([C@H](c5nncn5C)C5CCC5)c4)c(=O)n3c2)CC1 [Compound 376]

Same assay, conditions: second part of Table 2 (head 'Patent Cmpd No / Updated Activity'); same CBL-B TR-FRET IC50 bins A-F; read-out: Updated Activity

Row | IC50 [nM] | SMILES
38 | < 100 | Cn1cnnc1[C@@H](c1cccc(-n2cc3c(C(F)(F)F)cc(CN4CC(C)(C#N)C4)cn3c2=O)c1)C1CCC1 [Compound 564]
39 | 1000 to 3000 | Cn1cnnc1[C@H](c1cc(-c2cnoc2)cc(-n2cc3c(C(F)(F)F)cccn3c2=O)c1)C1CCC1 (single isomer, unassigned) [Compound 454]
40 | 301 to 1000 | Cn1cnnc1[C@@H](c1cc(F)cc(-n2cc3c(C(F)(F)F)cc(CN4CCC5(CC5)C4)cn3c2=O)c1)C1CCC1 (single isomer, unassigned) [Compound 510]
41 | < 100 | CCN(Cc1cc(C(F)(F)F)c2cn(-c3cccc([C@H](c4nncn4C)C4CCC4)c3)c(=O)n2c1)S(C)(=O)=O [Compound 591]
42 | < 100 | CN(Cc1cc(C(F)(F)F)c2cn(-c3cccc([C@H](c4nncn4C)C4CCC4)c3)c(=O)n2c1)S(C)(=O)=O [Compound 520]
43 | < 100 | Cn1cnnc1[C@@H](c1cccc(-n2cc3c(C(F)(F)F)cc(CN4CCC5(CCOC5=O)CC4)cn3c2=O)c1)C1CCC1 [Compound 545]
44 | > 10000 | CC(=O)N(C)Cc1cc([C@@H](c2nncn2C)C2CCC2)cc(-n2cc3c(C(F)(F)F)cccn3c2=O)c1 (single isomer, unassigned) [Compound 512]
45 | < 100 | Cn1cnnc1[C@@H](c1cccc(-n2cc3c(C(F)(F)F)cc(CN4CCC(C)(F)CC4)cn3c2=O)c1)C1COC1 [Compound 413]
46 | > 10000 | COC[C@H]1C[C@@H]([C@@H](c2cccc(-n3cc4c(C(F)(F)F)cc(CN5CCC[C@H](C)C5)cn4c3=O)c2)c2nncn2C)C1 (single isomer, unassigned) [Compound 492]
47 | < 100 | C[C@@H]1C[C@H](O)CN(Cc2cc(C(F)(F)F)c3cn(-c4cccc([C@H](c5nncn5C)C5CCC5)c4)c(=O)n3c2)C1 (single isomer, unassigned) [Compound 589]
48 | 301 to 1000 | Cn1cnnc1[C@@H](c1cc(C#N)cc(-n2cc3c(C(F)(F)F)cccn3c2=O)c1)C1CCC1 (single isomer, unassigned) [Compound 453]
49 | < 100 | Cn1cnnc1[C@@H](c1cccc(-n2cc3c(C(F)(F)F)cc(CN4CCC(F)CC4)cn3c2=O)c1)C1COC1 [Compound 414]
50 | > 10000 | CC(=O)NCc1cc([C@@H](c2nncn2C)C2CCC2)cc(-n2cc3c(C(F)(F)F)cccn3c2=O)c1 (single isomer, unassigned) [Compound 478]
51 | < 100 | [2H]C([2H])(c1cc(C(F)(F)F)c2cn(-c3cccc(C4(Cc5nncn5C)COC4)c3)c(=O)n2c1)N1CCC[C@H](C)C1 [Compound 490]
52 | > 10000 | C[C@H]1CCCN(Cc2cc(C(F)(F)F)c3cn(-c4cccc([C@H](c5nncn5C5CC5)C5CCC5)c4)c(=O)n3c2)C1 (single isomer, unassigned) [Compound 424]
53 | > 10000 | Cn1cnnc1[C@@H](c1cc(-c2nnnn2C)cc(-n2cc3c(C(F)(F)F)cccn3c2=O)c1)C1CCC1 (single isomer, unassigned) [Compound 532]
54 | > 10000 | Cn1cnnc1[C@H](c1cc(-c2ccncc2)cc(-n2cc3c(C(F)(F)F)cccn3c2=O)c1)C1CCC1 (single isomer, unassigned) [Compound 445]
55 | < 100 | CN1CCC2(CN(Cc3cc(C(F)(F)F)c4cn(-c5cccc([C@H](c6nncn6C)C6CCC6)c5)c(=O)n4c3)C2)C1=O [Compound 622]
56 | < 100 | C[C@H](c1cc(C(F)(F)F)c2cn(-c3cccc([C@H](c4nncn4C)C4CCC4)c3)c(=O)n2c1)N1CC[C@@H](F)C1 (single isomer, unassigned) [Compound 500]
57 | 301 to 1000 | CO[C@H]1C[C@H]([C@H](c2cccc(-n3cc4c(C(F)(F)F)cc(CN5CCC[C@H](C)C5)cn4c3=O)c2)c2nncn2C)C1 (single isomer, unassigned) [Compound 552]
